Consider 16 compounds from article PMC12138688, “Identification of Orthosteric GABAB Receptor Ligands by Virtual Screening and In Vitro Validation” (ACS Omega, 2025).

Test system in the first data set: not listed separately
Put plainly: Solubility of stock in 100% DMSO. The data set is classed as physicochemical. The settings on record: stock reduced to 5 mM. Here is the method: The 34 compounds for in vitro testing were purchased from MolPort (https://www.molport.com/). The test compounds were dissolved in 100% DMSO at a stock concentration of 10 mM and stored at −20 °C. […] Stock compounds were subsequently serially diluted in 100% DMSO and finally in a D-glucose solution (20 mM NaOH, 5 mM D-glucose) to obtain final concentrations for testing.
With `CN(Cc1ccc(Cl)c(Cl)c1)Cc1nc2ccsc2c(=O)[nH]1` [Compound 5, CN(Cc1ccc(Cl)c(Cl)c1)Cc1nc2ccsc2c(=O)[nH]1], the “solubility of 10 mM stock” value is on record as “solubility problems”.

`CSCCC(NC(=O)N1CC(O)=Nc2ccccc21)C(=O)NCc1ccc(Cl)cc1Cl` (stereo not shown) [Compound 25, CSCCC(NC(=O)N1CC(O)=Nc2ccccc12)C(=O)NCc1ccc(Cl)cc1Cl]: the “solubility of 10 mM stock” value is “solubility problems”.

The subject of a further data set is human GABAB-R (ChEMBL ID: CHEMBL2111463).
Test: not given
The settings on record: cited from earlier work.
With `CCOC(OCC)P(=O)(O)CCCN` [CHEMBL40157, NCCCP(=O)(C(OCC)OCC)O], the Activity entry is given as “Antagonist”.

As for `NCC(CC(=O)O)c1ccc(Cl)s1` (stereo not shown) [CHEMBL87482, NCC(CC(=O)O)c1ccc(Cl)s1], the Activity entry was “Agonist”.

In the case of `NCC(C[PH](=O)O)c1ccccc1` (stereo not shown) [CHEMBL109752, NCC(C[PH](=O)O)c1ccccc1], the Activity entry was “Agonist”.

In the case of `NC(CC[PH](=O)O)c1ccc(Cl)cc1` (stereo not shown) [CHEMBL110306, NC(CC[PH](=O)O)c1ccc(Cl)cc1], the Activity entry is “Agonist”.

`NCCC(c1ccccc1)[PH](=O)O` (stereo not shown) [CHEMBL111127, NCCC(c1ccccc1)[PH](=O)O]: the Activity entry was “Agonist”.

As for `NCC(C[PH](=O)O)c1ccc(F)cc1` (stereo not shown) [CHEMBL111378, NCC(C[PH](=O)O)c1ccc(F)cc1], the Activity result is reported as “Agonist”.

For `CP(=O)(O)CC(O)CN` (stereo not shown) [CHEMBL113348, CP(=O)(CC(CN)O)O], the Activity entry is “Agonist”.

Take `NCC(O)C[PH](=O)O` (stereo not shown) [CHEMBL113453, NCC(O)C[PH](=O)O]: the Activity result is listed as “Agonist”.

In the case of `NCCC(c1ccc(Cl)cc1)[PH](=O)O` (stereo not shown) [CHEMBL114020, NCCC(c1ccc(Cl)cc1)[PH](=O)O], the Activity entry was “Agonist”.

Take `NCC(C[PH](=O)O)c1ccc(Cl)cc1` (stereo not shown) [CHEMBL430501, NCC(C[PH](=O)O)c1ccc(Cl)cc1]: the Activity result was “Agonist”.

As for `CC(NCC(O)CP(=O)(O)Cc1ccccc1)c1ccc(Cl)c(Cl)c1` (stereo not shown) [CHEMBL455185, OC(CP(=O)(Cc1ccccc1)O)CNC(c1ccc(c(c1)Cl)Cl)C], the Activity entry was “Antagonist”.

For the compound `NCC(O)(CS(=O)(=O)O)c1ccc(Cl)cc1` (stereo not shown) [CHEMBL1256573, NCC(c1ccc(cc1)Cl)(CS(=O)(=O)O)O], the Activity result is on record as “Antagonist”.

`CC(C)(CO)Cc1cc(C(C)(C)C)c(O)c(C(C)(C)C)c1` [CHEMBL1256697, CC(C)(CO)Cc1cc(C(C)(C)C)c(O)c(C(C)(C)C)c1]: the Activity entry is “PAM”.

In a further data set the target is GABAB-R.
Test: not given
The settings on record: read-out: Ki value; cited from earlier work.
Regarding CGP54626, the Ki (in general, the dissociation constant of the complex between target and ligand, obtained from inhibition or displacement) was 7.08 nM.
